Patent publication US20130267594A1, “PROLYL HYDROXYLASE INHIBITORS AS RADIATION MITIGATORS AND RADIATION PROTECTORS” (priority 2010, published 2013)

Legend:
[1] = system: CHD4; assay type: cell-based; details: MCF7 cells; CoCl2 200 μM time course, FIG. 8F; DMOG only stated
[2] = system: HeLa cells; assay: Control experiment: toxicity of DMOG to the cells over the time course; assay type: cell-based; details: control experiments to FIG. 2
[3] = system: endogenous KDMs; assay: H3K9me3 immunofluorescent staining in vector-transfected HEK293T cells (FIG. 10B); assay type: cell-based; details: DMOG 1 mM 24 hrs
[4] = system: MEF cells; assay: Clonogenic cell survival assay after ionizing radiation, MEFs; assay type: cell-based, mouse; set-up: cell survival after exposure to IR (clonogenic): dose or concentration left out as unconfirmed
[5] = system: MEFs expressing shRNA targeting Hif1α; assay: Clonogenic cell survival assay after ionizing radiation, MEFs with Hif1α silenced; assay type: cell-based, mouse; details: DMOG 1 mM, FIG. 11A
[6] = Toxicity of DMOG alone in mice; assay type: in vivo, mouse; details: DMOG 100 mg/kg ip
Protocol: Mice: This study was carried out in strict accordance with the recommendations in the Guide for the Care and Use of Laboratory Animals of the National Institutes of Health. The protocol was reviewed and approved by the Dana-Farber Cancer Institute's Animal Care and Use Committee (Protocol number 06-029). All efforts were made to minimize suffering. Male Balb/c mice were purchased from Taconic (NY, USA) and C57BL/6J mice were purchased from The Jackson Laboratory (ME, USA). For total body irradiation (TBI), mice were irradiated at the dose rate of 110 cGy/min using a ^137Cs source (Gammacell® 40Exactor, Best Theratronics, Ottawa, Canada). DMOG (dissolved in saline) or saline was administered IP before and after TBI. The mice were given normal water that had undergone reverse osmosis and powdered food (Purina Pico Lab Chow) after TBI. The animals were closely inspected after TBI for ill-health and the moribund animals were sacrificed according to the guidelines in our approved ACUC protocol. The Kaplan-Meier survival curves were plotted for saline-treated and DMOG-treated cohorts. The statistical analysis of the Kaplan-Meier survival curves was performed with Graph Pad Prism Version 5 using Mantel Log-rank test.
The preliminary observation on the radiation mitigating effects of DMOG in primary fibroblast cell lines prompted the inventors to initiate testing of DMOG in a murine model. […]

[7] = target: T1, KDM4D (Homo sapiens, UniProt Q6B0I6); assay: KDM4D demethylation of H3K9me3 in transfected cells, immunofluorescent staining (FIG. 2); assay type: cell-based
T1 construct: expressed in transfected cells
T1 sequence (Q6B0I6 1-523): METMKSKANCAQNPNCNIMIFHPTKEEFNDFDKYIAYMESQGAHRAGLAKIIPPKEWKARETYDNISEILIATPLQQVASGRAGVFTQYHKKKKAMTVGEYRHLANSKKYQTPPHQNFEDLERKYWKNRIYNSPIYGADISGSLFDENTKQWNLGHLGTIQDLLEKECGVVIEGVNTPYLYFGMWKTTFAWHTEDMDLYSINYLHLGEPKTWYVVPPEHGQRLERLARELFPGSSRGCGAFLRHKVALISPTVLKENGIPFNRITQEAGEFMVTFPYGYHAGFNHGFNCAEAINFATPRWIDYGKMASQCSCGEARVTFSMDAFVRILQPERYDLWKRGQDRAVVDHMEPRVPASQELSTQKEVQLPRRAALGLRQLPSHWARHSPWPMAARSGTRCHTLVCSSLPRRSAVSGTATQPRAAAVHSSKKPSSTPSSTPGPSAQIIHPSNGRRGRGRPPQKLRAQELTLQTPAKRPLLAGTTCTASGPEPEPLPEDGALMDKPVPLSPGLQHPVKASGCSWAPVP
Protocol: HeLa cells were transiently transfected with either vector or KDM4D, followed by incubation with either solvent (PBS, control) or DMOG (100 μM) and then visualized by fluorescent microscopy.
Immunofluorescence: Cells (on cover slides) were fixed in phosphate-buffered saline (PBS) containing 2% paraformaldehyde. Cells were permeabilized in 0.2% Triton X-100 in PBS for 5mins, and then blocked in fetal bovine serum for 20 min, Primary antibodies were prepared in 10% fetal bovine serum supplemented with 0.2% saponin. After a 1 h incubation with primary antibody, cells were washed three times with 0.2% Tween-20 and incubated for 1 h in secondary antibody (conjugated to either Texas Red or FITC; Santa Cruz Biotechnology, CA). Slides were mounted with Fluoromount-G (Southern Biotech, AL). […]
KDMs utilize an Fe-oxo intermediate to form an unstable hydroxy-methyl intermediate, which spontaneously releases formaldehyde, leading to removal of a single methyl group. […] In FIG. 2B, Murine Embryonic Fibroblasts (MEFs) were transfected with empty vector or KDM4D, which specifically demethylates H3K9me3, and the levels of chromatin associated H3K9me3 measured by immunofluorescent staining using an anti-H3K9me3 antibody. In untreated cells, high levels of H3K9me3 were detected, and transient expression of the H3K9me3 demethylase KDM4D essentially demethylated the entire nuclear H3K9me3 signal. […]

[8] = system: Hif1α; assay type: cell-based, mouse
[9] = system: MTA3; assay type: cell-based; details: MCF-7 cells; CoCl2 200 μM 8 hr, FIG. 8E; DMOG only stated
[10] = system: Suv39h1; assay type: cell-based
[11] = system: CHD4; assay type: cell-based; details: MCF-7 cells; CoCl2 200 μM 8 hr, FIG. 8D; DMOG only stated
[12] = system: Hif1α; assay type: cell-based
[13] = system: MTA3; assay type: cell-based; details: MCF7 cells; CoCl2 200 μM time course, FIG. 8F; DMOG only stated

Compound: COC(=O)CNC(=O)C(=O)OC [DMOG, dimethyloxalylglycine]
- CHD4 protein levels [1]: increased
- toxicity over the time course of the experiment [2]: did not exhibit significant toxicity
- H3K9me3 methylation in cells expressing vector [3]: increased H3K9me3 methylation
- cell survival after exposure to IR (clonogenic) ([4]; MEF cells incubated with DMOG then irradiated, FIG. 3): increased cell survival
- radioresistance (clonogenic survival) ([4]; MEFs expressing a non-specific shRNA, DMOG 1 mM, FIG. 11A): increased radioresistance
- radiosensitivity (clonogenic survival) ([4]; MEFs, DMOG 1 mM, 1 hr before IR to 24 hr after, FIG. 7C): significant decrease in radiosensitivity
- protection when added after irradiation (radiation mitigation, clonogenic survival) ([4]; MEFs, DMOG 48-72 hours post-irradiation, FIG. 5): significant protection
- radioresistance (clonogenic survival) ([4]; Suv39h1/h2+/+ cells, FIG. 4B): small, but significant increase in radioresistance
- radioresistance (clonogenic survival) when Hif1α was silenced [5]: this effect was lost
- toxicity of DMOG alone in mice ([6]; no irradiation): does not cause any toxicity
- mice surviving at 30 days, DMOG alone ([6]; no irradiation (data not shown)): 100%
- ability of KDM4D to demethylate H3K9me3 ([7]; cells expressing KDM4D, DMOG 100 μM, anti-H3K9me3 staining): inhibited the ability of KDM4D to demethylate H3K9me3
- level of expression of the KDM4D enzyme ([7]; control experiments to FIG. 2): did not alter the level of expression of the KDM4D enzyme
- ability to increase Hif1α levels in SuvDKO MEFs [8]: not altered
- MTA3 mRNA levels [9]: increased
- DMOG dependent induction of Suv39h1 in cells lacking Hif1α [10]: abolished
- expression of the Suv39h1 methyltransferase [10]: increased expression of the Suv39h1 methyltransferase
- CHD4 mRNA levels [11]: increased
- accumulation of Hif1α [12]: significant accumulation of Hif1α
- accumulation of Hif1α protein in combination with IR, versus agent alone [12]: much larger accumulation of Hif1α protein
- MTA3 protein levels [13]: increased
